Series [1] has as its system alcohol dehydrogenase from R. erythropolis. As to the kind of experiment: Preparative reduction of keto-compounds with ADH and formate dehydrogenase regeneration, chiral GC. The format is biochemical, Rhodococcus erythropolis. The settings on record: for Conversion after 10 min [%]: 10 mM keto-compound, 0.5 U/ml alcohol dehydrogenase; for ee [%] of the product: enzymatic reduction, chiral GC. The procedure: The product is analysed by means of gas chromatography, wherein the stationary phase in the GC column is capable of separating enantiomeric alcohols so that information on the ee values of the enzymatically prepared product can be obtained.
Such a mixture for reduction contains: • 10 mM keto-compound • 0.5 mM NAD • 100 mM Na formate • 1 U/ml formate dehydrogenase
At the times 0, 5 min and 10 min, samples are taken (100 μl), extracted with 100 μl of chloroform and the chloroform phase is analysed using gas chromatography.
Column: CP-Chirasil-DEX CB length: 25 m, diameter: 25 μm (Chrompack). Temperature programme: 5 min at 60° C., then 5° C./min up to 190° C. (for hexanone/hexanol: 30 min at 60° C., then 10° C./min to 195° C.). Column flow 1.3 ml/min; gas:helium
p-Cl-acetophenone, acetophenone, ethyl 2-oxobutyrate, 2-hexanone and 2-heptanone.

The next series deals with ADH from R. erythropolis. The series can be described thus: Enantioselective oxidation of (R,S)-phenylethanol with ADH and NADH oxidase, chiral GC. The format is biochemical, Rhodococcus erythropolis. As to conditions: after 2 h; for oxidation of the enantiomer: 10 mM (R,S)-phenylethanol. The procedure: By means of enantioselective oxidation of an alcohol, an enantiomer-enriched or enantiomer-pure alcohol, for example, can be obtained from a racemate.
Samples were taken after 0, 1 and 2 h and separated by gas chromatography (column: CP-Chirasil-DEX CB length: 25 m, diameter: 25 μm (Chrompack). Temperature programme: 5 min at 60° C., then 5° C./min up to 190° C.; column flow rate 1.3 ml/min; gas: helium. In this case, both the acetophenone peak (product; retention time=16.9 min), and also the enantiomers of phenylethanol (reactants; retention times R-phenylethanol=20.8 min and S-phenylethanol=21.1 min) were recorded.

The subject of series [2] is alcohol dehydrogenase from R. erythropolis (RE-ADH, new ADH expr. in E. coli). As to the kind of experiment: Relative/specific activity of substrates with the new ADH from R. erythropolis (photometric NADH test). In kind it is biochemical, Rhodococcus erythropolis. The settings on record: for Relative activity [%]: relative to acetophenone = 100. The procedure: In this case, as is normal, the measured activity for one compound is set at 100% and the activity/activities of the other compound(s) is determined in relation thereto. From the relative activities when compared with other substrates, it can then be recognised whether such another substrate is accepted to a greater or lesser extent.
A first purification can be achieved by anion exchange chromatography (MonoQ-Material, Pharmacia) (mobile buffer: 50 mM TEA buffer, pH 7.0; elution with a NaCl gradient of 0-1 M).
For the activity test, the cells were harvested (15 min centrifuging at 14000 rpm, 4° C.) and degraded after resuspension with 100 mM KPi buffer, pH 6.0 (1.5 ml of buffer per 1 g of cells). For the purposes of degradation, the suspension was treated with ultrasound (2×30 sec. power 100%, pulse 50), then the cell broth was centrifuged. The supernatant liquid is the soluble crude extract, the sediment is the insoluble fraction.
For a comparison using relative activities, the activity of the two enzymes was given with respect to phenylacetaldehyde=100%.
In this case, the relative activity is given with respect to the activity measured for acetophenone.

In series [3] the test system is aldehyde reductase from Corynebacterium sp. As to conditions: cited from earlier work; for relative activity: phenylacetaldehyde = 100%.
Series [4] concerns ADH in accordance with J. Peters, Dissertation. The settings on record: cited from earlier work.
In series [5] the test system is whole cells of R. erythropolis. The series can be described thus: Continuous conversion with alginate-immobilised whole cells in a column. In kind it is cell-based, Rhodococcus erythropolis. The settings on record: 1.5 mM, 2 ml per h. The procedure: Our results with whole cells of R. erythropolis indicate that this strain contains several ADHs, including at least one with opposite enantioselectivity. […] However, this high ee value is retained for only about 10 h (about 3 volume changes), then the ee value drops drastically while the conversion remains at the same high level.

The subject of series [6] is ADH in accordance with DE 4209022. As to conditions: cited from earlier work.
Another series deals with CC(=O)c1ccc(Cl)cc1. The series can be described thus: purified protein, by the assay type. The settings on record: other: reduction reaction.
The subject of the next series is C[C@H](O)c1ccc(Cl)cc1. As to the kind of experiment: purified protein, by the assay type. As to conditions: other: oxidation reaction.
Substrate in series [7]: NC(=O)c1ccc[n+]([C@@H]2O[C@H](COP(=O)([O-])OP(=O)(O)OC[C@H]3O[C@@H](n4cnc5c(N)ncnc54)[C@H](O)[C@@H]3O)[C@@H](O)[C@H]2O)c1
The series can be described thus: purified protein, by the assay type. As to conditions: other: oxidation reaction.

The mark [8] stands for this setting: relative to 2-heptanone = 100%, listed as 2-decanone.
Setting [9] is: relative to 2-heptanone = 100%, listed as drawing 11.
[10] abbreviates: relative to methyl acetoacetate = 100%.
The mark [11] stands for this setting: relative to 2-heptanone = 100%, listed as 2-heptanone.
The mark [12] stands for this setting: relative to 2-heptanone = 100%, listed as drawing 10.
[13] abbreviates: relative to 2-heptanone = 100%, listed as drawing 12.
The mark [14] stands for this setting: relative to 2-heptanone = 100%, listed as phenoxyacetone.
Setting [15] is: relative to methyl acetoacetate = 100%, listed as drawing 9.
Where [16] appears, read: relative to methyl acetoacetate = 100%, listed as p-chloroacetophenone.
The mark [17] stands for this setting: relative to p-methylacetophenone = 100%, listed as drawing 3.
[18] abbreviates: relative to p-methylacetophenone = 100%, listed as p-chloroacetophenone.
Where [19] appears, read: relative to p-fluoroacetophenone = 100%, listed as drawing 5.
[20] abbreviates: relative to p-fluoroacetophenone = 100%, listed as p-methoxyacetophenone.
[21] abbreviates: relative to p-methylacetophenone = 100%.

Like-named read-outs stand apart in the source and are kept apart here. Where only a bound is given, the exact number is not on record here.

In the case of `CCCCC(C)=O` [2-hexanone], in series [1], the “Conversion after 10 min [%]” value is reported as greater than 95% and the “ee [%] of the product” value is recorded as greater than 99%.

For the molecule `C[C@@H](O)c1ccccc1` [(R)-phenylethanol], in the series with ADH from R. erythropolis, the “ee value of the remaining enantiomer” value was greater than 99% and the “oxidation of the enantiomer” value is “remained untouched”.

With `C[C@H](O)c1ccccc1` [(S)-phenylethanol], the “oxidation of the enantiomer” value in the series with ADH from R. erythropolis is recorded as “fully oxidised”.

`CC(=O)c1ccccc1` [Acetophenone]: the “activity of Rhodococcus ADH compared with the Corynebacterium enzyme” value in series [2] (highly purified enzymes, towards acetophenone) is on record as “about 15 times”. The “activity for acetophenone reduction” value in [2] (homogeneous enzyme) is on record as 348 U/mg; in series [3] (homogeneous enzyme), 22.4 U/mg. The relative activity in series [2] (phenylacetaldehyde = 100%) was 87%; in series [3], 35%. The “Relative activity [%]” value in series [2] came out at 100%. Further, in series [1], the “Conversion after 10 min [%]” value is listed as greater than 95%. Besides, the “ee [%] of the product” value in series [1] is recorded as greater than 99%.

On to `CCCCCCCCC(C)=O` [Decan-2-one, 2-decanone], for which the relative activity in [2] (setting [8]) is reported as 76%; in [2] (setting [9]), 76%; in series [4] (setting [8]), 79%; in series [4] (setting [9]) it was 79%. Besides, the “Relative activity [%]” value in series [2] is given as 2521%.

For `CCOC(=O)C(=O)CC` [Ethyl 2-oxobutyrate, ethyl 2-oxobutyrate], in series [1], the “Conversion after 10 min [%]” value is greater than 95% and the “ee [%] of the product” value is reported as greater than 99%.

Take `CCOC(=O)CC(C)=O` [Ethyl acetoacetate]: the “Relative activity [%]” value in series [2] was 1020%. Moreover, the relative activity in series [2] (setting [10]) was 773%; in [2] (relative to methyl acetoacetate = 100%, listed as β-ketoethyl ester) it was 773%; in series [4] (setting [10]), 250%; in series [4] (relative to methyl acetoacetate = 100%, listed as β-ketoethyl esters), 250%.

`CCCCCC(C)=O` [Heptan-2-one, 2-heptanone]: the relative activity in series [2] (setting [11]), in series [2] (setting [12]), in [4] (setting [11]) and in series [4] (setting [12]) was 100% throughout. Moreover, the “Relative activity [%]” value in series [2] is 3328%. Also, the “Conversion after 10 min [%]” value in series [1] is recorded as greater than 95%. Moreover, the “ee [%] of the product” value in series [1] is recorded as greater than 99%.

On to `COC(=O)CC(C)=O` [Methyl acetoacetate, methyl acetoacetate], for which the “Relative activity [%]” value in series [2] is 134%. Also, the relative activity is on record as 100% in series [2] (setting [10]); 100% in [2] (relative to methyl acetoacetate = 100%, listed as methyl ester); 100% in [4] (setting [10]).

For the molecule `CC(=O)COc1ccccc1` [Phenoxyacetone, phenoxyacetone], the relative activity in [2] (setting [13]) is recorded as 126%; in series [2] (setting [14]) it was 126%; in series [4] (setting [13]), 71%; in series [4] (setting [14]), 71%. The “Relative activity [%]” value in series [2] turned out to be 4180%.

As to `O=CCc1ccccc1` [Phenylacetaldehyde], the relative activity in series [2] (phenylacetaldehyde = 100%) and in [3] was 100% each time.

Consider `CCCCC=O` [Valeraldehyde], for which the relative activity was 433% in [2] (phenylacetaldehyde = 100%) and 181% in series [3].

For the molecule `CC(=O)c1cccc(Cl)c1` [m-Cl-acetophenone], the “Relative activity [%]” value in series [2] was 2384%.

With `CC(=O)c1ccc(Cl)cc1` [p-Cl-acetophenone, p-chloroacetophenone], the relative activity is on record as 288% in [2] (phenylacetaldehyde = 100%); 909% in [2] (setting [15]); 909% in [2] (setting [16]); 189% in [2] (setting [17]); 189% in [2] (setting [18]); 81% in [6] (setting [17]). The relative activity is 81% in [6] (setting [18]), 100% in series [4] (setting [15]), 100% in series [4] (setting [16]) and 338% in series [3]. For the same molecule, the “Relative activity [%]” value in series [2] is 1198%. The “Conversion after 10 min [%]” value in [1] is reported as greater than 95%. The “enantiomeric form of the product of conversion by the new alcohol dehydrogenase” value in [1] (also when used several times or at higher concentrations) is recorded as “enantiomerically pure”. Also, in series [1], the “ee [%] of the product” value is on record as greater than 99%. Also, the “ee of (S)-p-chloro-2-phenylethanol obtained” value in series [5] (after 25 h (about 9 volume changes)) is reported as 70 % ee. Further, in [5] (after 50 h (about 18 volume changes)), the “ee of the alcohol obtained” value is reported as “about 5 % ee”.

Take `CC(=O)c1ccc(F)cc1` [p-F-acetophenone, p-fluoroacetophenone]: the “Relative activity [%]” value in series [2] turned out to be 194%. Further, the relative activity in series [2] (relative to p-fluoroacetophenone = 100%) is listed as 100%; in series [6] (relative to p-fluoroacetophenone = 100%, listed as drawing 6), 100%; in [6] (relative to p-fluoroacetophenone = 100%, listed as p-fluoroacetophenone), 100%.

As to `COc1ccc(C(C)=O)cc1` [p-methoxy-acetophenone, p-methoxyacetophenone], the “Relative activity [%]” value in series [2] amounted to 232%. For the same molecule, the relative activity in [2] (setting [19]) is given as 195%; in series [2] (setting [20]), 195%; in series [6] (setting [19]) it was 90%; in series [6] (setting [20]), 90%.

As to `CC(=O)c1ccc(C)cc1` [p-methyl-acetophenone, p-methylacetophenone], the “Relative activity [%]” value in series [2] was found to be 640%. Besides, the relative activity in series [2] (setting [21]) and in series [6] (setting [21]) was 100% each time.

Regarding RE-ADH (Rhodococcus erythropolis), the Km with CC(=O)c1ccc(Cl)cc1 is 500 µM; in the series with C[C@H](O)c1ccc(Cl)cc1, 280 µM.

B1: RE-ADH (Rhodococcus erythropolis) (protein)
chain: MKAIQYTRIGAEPELTEIPKPEPGPGEVLLEVTAAGVCHSDDFIMSLPEEQYTYGLPLTLGHEGAGKVAAVGEGVEGLDIGTNVVVYGPWGCGNCWHCSQGLENYCSRAQELGINPPGLGAPGALAEFMIVDSPRHLVPIGDLDPVKTVPLTDAGLTPYHAIKRSLPKLRGGSYAVVIGTGGLGHVAIQLLRHLSAATVIALDVSADKLELATKVGAHEVVLSDKDAAENVRKITGSQGAALVLDFVGYQPTIDTAMAVAGVGSDVTIVGIGDGQAHAKVGFFQSPYEASVTVPYWGARNELIELIDLAHAGIFDIAVETFSLDNGAEAYRRLAAGTLSGRAVVVPGL
With B1, the Km in [7] is 82 µM.

By Km is commonly meant the concentration of substrate that gives half-maximal velocity.

These data come from patent US7341859B2, “ADH from Rhodococcus erythropolis” (Degussa AG, priority 2002, dated 2008).
